Measured values from the NIST ThermoML archive (doi:10.1016/j.jct.2019.105878).

Assay: osmotic coefficient (dimensionless); mn = molality of the nth substance listed, in mol/kg
Conditions: 298.15 K, 97.5 kPa, Liquid, vapour pressure osmometry

O=Cc1ccc(CO)o1 [5-(hydroxymethyl)furan-2-carbaldehyde] + O
Conditions | osmotic coefficient
m1 = 0.496 | 0.85
m1 = 0.991 | 0.73
m1 = 1.483 | 0.635
m1 = 1.98 | 0.572
m1 = 2.473 | 0.521
m1 = 2.967 | 0.462
m1 = 3.459 | 0.442
m1 = 3.95 | 0.396
m1 = 4.444 | 0.378
m1 = 4.935 | 0.37
